Assay [1] addresses T1, endogenous CD38 in HL60 cells (Homo sapiens, UniProt P28907).
T1 construct: endogenous in cells; host or cells: HL60 (leukemic cells, treated with all-trans retinoic acid)
T1 sequence (P28907 1-300): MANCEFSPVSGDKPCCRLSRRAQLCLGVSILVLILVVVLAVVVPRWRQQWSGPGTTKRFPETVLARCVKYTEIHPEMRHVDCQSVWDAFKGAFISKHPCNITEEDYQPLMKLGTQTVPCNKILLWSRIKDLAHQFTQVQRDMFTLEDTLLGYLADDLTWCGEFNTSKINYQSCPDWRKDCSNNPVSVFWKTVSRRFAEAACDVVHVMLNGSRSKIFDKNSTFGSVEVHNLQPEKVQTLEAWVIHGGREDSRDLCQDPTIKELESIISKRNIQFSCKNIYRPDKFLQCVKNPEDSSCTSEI
The assay can be described thus: cellular CD38 assay in HL60 cells (cellular NAD levels). The note with it: all-trans retinoic acid, 24 hours, read-out: hCD38 HL60 ATRA NAD Cell Diaphorase IC50. It is filed as cell-based. The method, boiled down:
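Endogenous CD38 inhibition is inferred from NAD levels in HL60 cells after 24 h compound exposure at 20000 cells per well. A lytic cycling readout (0.2 U/mL diaphorase, 0.8 U/mL alcohol dehydrogenase, resazurin, FMN, ethanol, 0.2% Triton X-100, Tris/EDTA pH 8.4) ran 60 min at ambient temperature. Resorufin fluorescence was read at 540/590 nm.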

Another assay concerns the target T2, mouse CD38 (Mus musculus, UniProt P56528).
T2 sequence (P56528 1-304): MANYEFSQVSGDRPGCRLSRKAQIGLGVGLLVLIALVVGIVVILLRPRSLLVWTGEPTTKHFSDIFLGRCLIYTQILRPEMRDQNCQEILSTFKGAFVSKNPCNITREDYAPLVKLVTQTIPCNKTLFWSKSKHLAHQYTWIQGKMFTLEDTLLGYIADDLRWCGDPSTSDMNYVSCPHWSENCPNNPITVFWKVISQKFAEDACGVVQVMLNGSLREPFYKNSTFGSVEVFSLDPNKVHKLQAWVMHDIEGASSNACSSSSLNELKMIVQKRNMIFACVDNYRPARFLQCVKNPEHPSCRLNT
The assay can be described thus: mouse recombinant CD38 enzyme assay (hydrolysis of NAD+). It is filed as biochemical. The settings on record: read-out: mCD38 BioChem IC50. The procedure, abridged:
(§1)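 Steps: compound and recombinant enzyme are mixed, NAD+ is added, and the reaction runs 60 min at room temperature. An ADH/ethanol mix containing a CD38 inhibitor halts hydrolysis and forms NADH. After NaOH quench, resazurin plus diaphorase produce fluorescent resorufin, read at 540/590 nm.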

The next assay addresses T3, human CD38 (Homo sapiens, UniProt P28907).
T3 sequence (P28907 1-300): T1 sequence (P28907 1-300)
The experiment in a line: human recombinant CD38 enzyme assay (hydrolysis of NAD+). It is filed as biochemical. The note with it: human recombinant CD38, 0.4 nM enzyme, 62.5 μM NAD+; read-out: hCD38 BioChem IC50. The procedure, abridged:
as §1

The results in this text go back to US20230116972A1, “CD38 MODULATORS AND METHODS OF USE THEREOF” (Cytokinetics, Inc., priority 2021, published 2023).

Consider `Cn1cncc1-c1ccnc(C(=O)N[C@H]2CCN(c3ccccc3)C2)n1` [Compound 246, (S)-4-(1-methyl-1H-imidazol-5-yl)-N-(1-phenylpyrrolidin-3-yl)pyrimidine-2-carboxamide], for which the IC50 is 8770 nM in assay [1], 61.8 nM at mouse CD38 and 82.9 nM on human CD38.

As for `O=C(N[C@H]1CCN(c2ccccc2)C1)c1nccc(-n2ccnc2)n1` [Compound 247, (S)-4-(1H-imidazol-1-yl)-N-(1-phenylpyrrolidin-3-yl)pyrimidine-2-carboxamide], the concentration for half-maximal inhibition (IC50) was 14400 nM in assay [1], 139 nM on mouse CD38 and 233 nM on human CD38.

Take `CC(C)(O)c1ccc(NC(=O)c2ccnc(-n3ccnc3)n2)cn1` [Compound 248, N-(6-(2-hydroxypropan-2-yl)pyridin-3-yl)-2-(1H-imidazol-1-yl)pyrimidine-4-carboxamide]: the IC50 was determined as 874 nM in assay [1], 13.8 nM at mouse CD38 and 10.7 nM at human CD38.

For the compound `CC(C)(O)[C@H]1CC[C@H](NC(=O)c2nccc(-n3ccnc3)n2)CC1` [Compound 251, N-((1r,4r)-4-(2-hydroxypropan-2-yl)cyclohexyl)-4-(1H-imidazol-1-yl)pyrimidine-2-carboxamide], the IC50 was 5110 nM in assay [1], 58.7 nM at mouse CD38 and 207 nM on human CD38.

As to `Cn1cncc1-c1ccnc(C(=O)N[C@H]2CC[C@](O)(c3ccccc3)CC2)n1` [Compound 252, N-((1s,4s)-4-hydroxy-4-phenylcyclohexyl)-4-(1-methyl-1H-imidazol-5-yl)pyrimidine-2-carboxamide], the figures for the half-maximal inhibitory concentration (IC50) (in assay [1]; at mouse CD38; on human CD38) were 4880 nM, 184 nM and 255 nM, respectively.

On to `Cn1cncc1-c1ccnc(C(=O)N[C@H]2CC[C@H](C(C)(C)O)CC2)n1` [Compound 254, N-((1r,4r)-4-(2-hydroxypropan-2-yl)cyclohexyl)-4-(1-methyl-1H-imidazol-5-yl)pyrimidine-2-carboxamide], for which the half-inhibitory concentration (IC50) is 3670 nM in assay [1], 31.2 nM on mouse CD38 and 93.5 nM on human CD38.

On to `CCO[C@H]1CC[C@H](NC(=O)c2nccc(-c3cncn3C)n2)CC1` [Compound 255, N-((1r,4r)-4-ethoxycyclohexyl)-4-(1-methyl-1H-imidazol-5-yl)pyrimidine-2-carboxamide], for which the IC50 in assay [1] was 2760 nM; at mouse CD38, 28.7 nM; on human CD38, 71.5 nM.

In the case of `O=C(N[C@H]1CC[C@H](O)CC1)c1nccc(-n2ccnc2)n1` [Compound 257, N-((1r,4r)-4-hydroxycyclohexyl)-4-(1H-imidazol-1-yl)pyrimidine-2-carboxamide], the figures for the IC50 (in assay [1]; on mouse CD38; on human CD38) were 4520 nM, 43.4 nM and 124 nM, respectively.

For `CCO[C@H]1CC[C@H](NC(=O)c2nccc(-n3ccnc3)n2)CC1` [Compound 258, N-((1r,4r)-4-ethoxycyclohexyl)-4-(1H-imidazol-1-yl)pyrimidine-2-carboxamide], the IC50 in assay [1] came out at 5580 nM; at mouse CD38, 36.4 nM; at human CD38 it was 71.6 nM.

As to `Cn1cncc1-c1ccnc(C(=O)N[C@H]2CC[C@H](CO)CC2)n1` [Compound 259, N-((1r,4r)-4-(hydroxymethyl)cyclohexyl)-4-(1-methyl-1H-imidazol-5-yl)pyrimidine-2-carboxamide], the IC50 in assay [1] was 2280 nM; at mouse CD38, 15.6 nM; at human CD38, 46.1 nM.

Take `O=C(N[C@H]1CC[C@](O)(c2ccccc2)CC1)c1nccc(-n2ccnc2)n1` [Compound 260, N-((1s,4s)-4-hydroxy-4-phenylcyclohexyl)-4-(1H-imidazol-1-yl)pyrimidine-2-carboxamide]: the IC50 in assay [1] was determined as 10600 nM; at mouse CD38, 161 nM; on human CD38, 271 nM.

Turning to `O=C(N[C@H]1CC[C@H](CO)CC1)c1nccc(-n2ccnc2)n1` [Compound 261, N-((1r,4r)-4-(hydroxymethyl)cyclohexyl)-4-(1H-imidazol-1-yl)pyrimidine-2-carboxamide], the IC50 came to 3100 nM in assay [1], 39.1 nM at mouse CD38 and 86.3 nM on human CD38.

One may read the IC50 as the concentration that inhibits the measured activity by half.
